ChEMBL document CHEMBL4673230, “Total Synthesis of Natural Lembehyne C and Investigation of Its Cytotoxic Properties” (J Nat Prod, 2020)
Activity calls are given as the source filed them. No cut-off for these calls is given here.

Legend:
Jurkat [1] = assay: Cytotoxicity against human Jurkat cells assessed as reduction in cell viability by 7-AAD staining based flow cytometric analysis; format: functional
K562 = assay: Cytotoxicity against human K562 cells assessed as reduction in cell viability by 7-AAD staining based flow cytometric analysis; format: functional
Jurkat [2] = assay: Induction of apoptosis in human Jurkat cells assessed as viable cells at 400 nM after 24 hrs by Annexin V/7-AAD staining.based flow cytometric analysis relative to control; format: functional; conditions: read-out: Activity
Jurkat [3] = assay: Induction of apoptosis in human Jurkat cells assessed as early apoptotic cells at 400 nM after 24 hrs by Annexin V/7-AAD staining.based flow cytometric analysis relative to control; format: functional
Jurkat [4] = assay: Induction of apoptosis in human Jurkat cells assessed as late apoptotic cells at 400 nM after 24 hrs by Annexin V/7-AAD staining.based flow cytometric analysis relative to control; format: functional
Jurkat [5] = assay: Induction of apoptosis in human Jurkat cells assessed as necrotic cells at 200 nM after 24 hrs by Annexin V/7-AAD staining.based flow cytometric analysis relative to control; format: functional
Jurkat [6] = assay: Induction of apoptosis in human Jurkat cells assessed as early apoptotic cells at 100 nM after 24 hrs by Annexin V/7-AAD staining.based flow cytometric analysis relative to control; format: functional
Jurkat [7] = assay: Induction of apoptosis in human Jurkat cells assessed as necrotic cells at 100 nM after 24 hrs by Annexin V/7-AAD staining.based flow cytometric analysis relative to control; format: functional
Jurkat [8] = assay: Induction of apoptosis in human Jurkat cells assessed as viable cells at 50 nM after 24 hrs by Annexin V/7-AAD staining.based flow cytometric analysis relative to control; format: functional; conditions: read-out: Activity
Jurkat [9] = assay: Induction of apoptosis in human Jurkat cells assessed as early apoptotic cells at 50 nM after 24 hrs by Annexin V/7-AAD staining.based flow cytometric analysis relative to control; format: functional
Jurkat [10] = assay: Induction of cell cycle arrest in human Jurkat cells assessed as accumulation at S phase at 400 nM after 24 hrs by Guava Cell Cycle reagent based flow cytometric analysis relative to control; format: functional
Jurkat [11] = assay: Induction of cell cycle arrest in human Jurkat cells assessed as accumulation at S phase at 200 nM after 24 hrs by Guava Cell Cycle reagent based flow cytometric analysis relative to control; format: functional
Jurkat [12] = assay: Induction of cell cycle arrest in human Jurkat cells assessed as accumulation at S phase at 100 nM after 24 hrs by Guava Cell Cycle reagent based flow cytometric analysis relative to control; format: functional
Jurkat [13] = assay: Induction of cell cycle arrest in human Jurkat cells assessed as accumulation at S phase at 50 nM after 24 hrs by Guava Cell Cycle reagent based flow cytometric analysis relative to control; format: functional
Jurkat [14] = assay: Induction of cell cycle arrest in human Jurkat cells assessed as accumulation at G2 phase at 400 nM after 24 hrs by Guava Cell Cycle reagent based flow cytometric analysis relative to control; format: functional
Jurkat [15] = assay: Induction of cell cycle arrest in human Jurkat cells assessed as accumulation at G2 phase at 200 nM after 24 hrs by Guava Cell Cycle reagent based flow cytometric analysis relative to control; format: functional
Jurkat [16] = assay: Induction of cell cycle arrest in human Jurkat cells assessed as accumulation at sub-G1 phase at 400 nM after 24 hrs by Guava Cell Cycle reagent based flow cytometric analysis relative to control; format: functional
Jurkat [17] = assay: Induction of cell cycle arrest in human Jurkat cells assessed as accumulation at sub-G1 phase at 100 nM after 24 hrs by Guava Cell Cycle reagent based flow cytometric analysis relative to control; format: functional
Jurkat [18] = assay: Induction of cell cycle arrest in human Jurkat cells assessed as accumulation at sub-G1 phase at 50 nM after 24 hrs by Guava Cell Cycle reagent based flow cytometric analysis relative to control; format: functional
Jurkat [19] = assay: Induction of cell cycle arrest in human Jurkat cells assessed as accumulation at G2/G1 phase at 400 nM after 24 hrs by Guava Cell Cycle reagent based flow cytometric analysis relative to control; format: functional
Jurkat [20] = assay: Induction of cell cycle arrest in human Jurkat cells assessed as accumulation at G2/G1 phase at 50 nM after 24 hrs by Guava Cell Cycle reagent based flow cytometric analysis relative to control; format: functional
Jurkat [21] = assay: Induction of cell cycle arrest in human Jurkat cells assessed as accumulation at super-G2 phase at 400 nM after 24 hrs by Guava Cell Cycle reagent based flow cytometric analysis relative to control; format: functional
Jurkat [22] = assay: Induction of cell cycle arrest in human Jurkat cells assessed as accumulation at super-G2 phase at 200 nM after 24 hrs by Guava Cell Cycle reagent based flow cytometric analysis relative to control; format: functional
Jurkat [23] = assay: Induction of cell cycle arrest in human Jurkat cells assessed as accumulation at super-G2 phase at 50 nM after 24 hrs by Guava Cell Cycle reagent based flow cytometric analysis relative to control; format: functional
Jurkat [24] = assay: Induction of DNA damage in human Jurkat cells assessed as increase in H2Ax phosphorylation at 0.4 uM after 2 hrs by Alexa Fluor555 staining based flow cytometric analysis; format: functional, cell-based
Jurkat [25] = assay: Induction of mitochondrial membrane potential loss in human Jurkat cells after 4 hrs by flow cytometric analysis; format: functional, cell-based
Jurkat [26] = assay: Induction of mitochondrial membrane potential loss in human Jurkat cells assessed as early apoptotic cells at 400 nM after 4 hrs by MitoSense Red/7-AAD. flow cytometric analysis relative to control; format: functional
Jurkat [27] = assay: Induction of ROS generation in human Jurkat cells assessed as living undamaged cells at 200 nM after 2 hrs by MitoSox Red/annexin V-CF488A staining based flow cytometric analysis (reference value: 95.44%); format: functional
Jurkat [28] = assay: Induction of ROS generation in human Jurkat cells assessed as mitochondria damaged cells at 200 nM after 4 hrs by MitoSox Red/annexin V-CF488A staining based flow cytometric analysis (reference value: 0%); format: functional
[29] = Effect on total CREB level in human jurkat cells at 400 nM by magnetic bead based immunoassay; format: cell-based; conditions: 0.4 µM
[30] = Effect on total NFKappaB level in human jurkat cells at 400 nM by magnetic bead based immunoassay; format: cell-based; conditions: 0.4 µM
[31] = Effect on total p38 level in human jurkat cells at 400 nM by magnetic bead based immunoassay; format: cell-based; conditions: 0.4 µM
[32] = Effect on total STAT3 level in human jurkat cells at 400 nM by magnetic bead based immunoassay; format: cell-based; conditions: 0.4 µM

SMILES: C#C[C@H](O)CCCCCCCCC/C=C\CC/C=C\CC/C=C\CCCCCCCCCCCCCCCC
- IC50 (Jurkat [1]): 161 nM
- IC50 (K562): 373 nM
- viability at 0.4 µM (Jurkat [2]): 32.9%
- Activity (Jurkat [3]): 15.86%
- Activity (Jurkat [4]): 50.24%
- Activity (Jurkat [5]): 7.51%
- Activity (Jurkat [6]): 12.63%
- Activity (Jurkat [7]): 5.89%
- viability at 0.05 µM (Jurkat [8]): 59.8%
- Activity (Jurkat [9]): 14.25%
- Activity (Jurkat [10]): 31.5%
- Activity (Jurkat [11]): 28.57%
- Activity (Jurkat [12]): 30.33%
- Activity (Jurkat [13]): 27.85%
- Activity (Jurkat [14]): 7.68%
- Activity (Jurkat [15]): 8.65%
- Activity (Jurkat [16]): 16.56%
- Activity (Jurkat [17]): 13.99%
- Activity (Jurkat [18]): 10.76%
- Activity (Jurkat [19]): 1.93%
- Activity (Jurkat [20]): 1.91%
- Activity (Jurkat [21]): 1.85%
- Activity (Jurkat [22]): 0.91%
- Activity (Jurkat [23]): 1.35%
- Activity (Jurkat [24]): inactive
- Activity (Jurkat [25]): Dose-dependent effect
- Activity (Jurkat [26]): 3.32%
- Activity (Jurkat [27]): 70.77%
- Activity (Jurkat [28]): 0.16%
- Activity [29]: Toxic
- Activity [30]: Toxic
- Activity [31]: Toxic
- Activity [32]: Toxic
